Reference: patent US10143200B2, “Synergistic compositions for the protection of agrarian crops and the use thereof” (STICHTING I-F PRODUCT COLLABORATION, priority 2012, dated 2018)

How the values were obtained:
Puccinia recondita = assay: Fungicidal activity in preventive application (5 days) on wheat; format: in vivo, Puccinia recondita on wheat (Salgemma variety); conditions: leaf spray 5 days before inoculation, reduction of affected leaf area vs untreated, scale 0-100
Procedure: Leaves of wheat plants of the […] variety, grown in pots in a conditioned environment kept at 20° C. and 70% of relative humidity (R.H.), were treated by spraying both sides of the leaves with the compounds and the compositions under testing, dispersed in hydroacetonic solutions at 20% by volume of acetone. After remaining 5 days in a conditioned environment, the plants were sprayed on both sides of the leaves with an aqueous suspension of conidia of Puccinia recondita (2 mg of inoculum per 1 ml of solution for infection). After being sprayed, the plants were kept in a humidity-saturated environment at a temperature ranging from 18 to 24° C. for the incubation period of the fungus (1 day). After this period, the plants were put in a greenhouse with R.H. of 70% and at a temperature of 18-24° C. for 14 days. At the end of this period the external symptoms of the pathogen appeared and it was therefore possible to proceed with the visual assessment of the intensity of the infection. The fungicidal activity was expressed as percentage of reduction of affected leaves areas with respect to those of untreated plants used as control: the scale comprised, as extremes, the value 100 (full activity; healthy plant) and the value 0 (no activity; completely infected plant).

[1] = test system: Stagonospora nodorum (SN); assay: In vitro growth inhibition of spore suspensions (optical density 405 nm, 43 h); format: cell-based; conditions: concentration giving 50% growth inhibition; Stagonospora nodorum spores, 43 hours at room temperature, average of three replicates
wheat plants = assay: Phytotoxicity (percentage of leaf necrosis) on wheat plants; format: in vivo, wheat (Salgemma variety); conditions: scale 0 (none) to 100
Procedure: Leaves of wheat plants of the Salgemma variety, grown in pots in a conditioned environment kept at 20° C. and 70% of relative humidity (R.H.), were treated by spraying both sides of the leaves with the compounds and the compositions under testing, dispersed in hydroacetonic solutions at 20% by volume of acetone.
At the same time, the phytotoxicity (percentage of leaf necrosis) induced on the wheat plants by the application of the products and compositions was evaluated: in this case, the scale ranged from 0 (no phytotoxicity) to 100 (completely necrotized plant).

Botrytis cinerea (BC) = assay: In vitro growth inhibition of spore suspensions (optical density 405 nm, 43 h); format: cell-based; conditions: concentration giving 50% growth inhibition; Botrytis cinerea spores, 43 hours at room temperature, average of three replicates

| SMILES | % Activity (Puccinia recondita; Rate 62.5 ppm) | % Activity (Puccinia recondita; Rate 125 ppm) | SN EC50 [1] | % Phytotoxicity (wheat plants; Rate 62.5 ppm) | % Phytotoxicity (wheat plants; Rate 125 ppm) | EC50 against Botrytis cinerea (Botrytis cinerea (BC)) |
| --- | --- | --- | --- | --- | --- | --- |
| CC1CC(C)(C)c2c(F)ccc(NC(=O)c3cn(C)nc3C(F)F)c21 (racemic) [Racemic (I), 3-difluoromethyl-N-(7-fluoro-1,1,3-trimethyl-4-indanyl)-1-methyl-4-pyrazolecarboxamide] | 96% | 98% | 1.1 ppm | 0% | 0% | 0.32 ppm |
| CC1CC(C)(C)c2c(F)ccc(NC(=O)c3cn(C)nc3C(F)F)c21 (single isomer, unassigned; (+)) [(+)-(I), 3-difluoromethyl-N-(7-fluoro-1,1,3-trimethyl-4-indanyl)-1-methyl-4-pyrazolecarboxamide] | 20% | 45% | 72 ppm | 0% | 0% | n.i. |
| CC1CC(C)(C)c2c(F)ccc(NC(=O)c3cn(C)nc3C(F)F)c21 (single isomer, unassigned; (-)) [(−)-(I), 3-difluoromethyl-N-(7-fluoro-1,1,3-trimethyl-4-indanyl)-1-methyl-4-pyrazolecarboxamide] | 96% | 100% | 0.42 ppm | 0% | 0% | 0.17 ppm |
